Experimental data taken from patent US20130178523A1, “ANTI-CANCER COMPOSITIONS AND METHODS” (THE PENN STATE RESEARCH FOUNDATION, priority 2007, published 2013).

How the values were obtained:
UACC 903 cells [1] = assay: BrdU ELISA cellular proliferation; format: cell-based, human; settings: 24 hours
Protocol: Proliferation rate is measured using a BrdU ELISA kit (Roche Applied Sciences, Indianapolis, Ind.).
BrdUrd is used to label cells for 4-6 hours. At 15 μM concentration, ISC-4 and ISC-6 reduced UACC 903 cellular proliferative potential by ˜80-90% compared to controls. Results represent the average of 3 independent experiments; bars represent SEM. The average value is represented as the percentage of control DMSO treated cells.

UACC 903 cells [2] = assay: Apo-ONE caspase-3/7 apoptosis assay; format: cell-based, human; settings: 24 hours
Protocol: Apoptosis rates are measured using an Apo-ONE Homogenous caspase-3/7 Assay kit (Promega Corporation, Madison, Wis.).
The isoselenocyanate compounds promote apoptosis in melanoma cells. […] The graphs in FIGS. 3A and 3B show fold increase in caspase-3/7 activity relative to DMSO vehicle treated cells on the x-axis. Results represent average of 3 independent experiments. Bars indicate SEM.

[3] = Toxicity assessments in nude mice (blood parameters, histology); format: in vivo
From the text: Animals are sacrificed by CO2 asphyxiation and blood collected from each animal in plasma separator tubes with lithium heparin (BD Microtainer, BD, Franklin Lakes, N.J.) following cardiac puncture and analyzed for AST (aspartate aminotransferase), ALT, (alanyl aminotransferase), alkaline phosphatase, glucose and creatinine to ascertain liver, heart, kidney and pancreas related toxicity. For morphological examination of blood cells, whole blood is collected in microtainer tubes containing K2EDTA (BD Microtainer, BD, Franklin Lakes, N.J.) and RBC, WBC, lymphocytes, monocytes, eosinophils, platelets, total hemoglobin and hematocrit percentage analyzed. Blood is also microscopically examined for segregates, polychromatin bodies, and smudge cells. A portion of liver, heart, kidney, spleen, intestine pancreas and adrenal from each animal is formalin fixed and paraffin-embedded to examine toxicity-related changes in cell or organ morphology by H&E staining.

UACC 903 cells [4] = assay: Topical application on melanoma tumor growth in vivo; parameters: species or system mice; settings: topical daily
Protocol: Chemopreventive or chemotherapeutic effect of ISC-4 on cutaneous tumor development is measured by subcutaneous injection of 1 million UACC 903 cells in 0.2 ml of DMEM −10% FBS above both the left and right rib cages of 4- to 6-week old female athymic nude mice using 24 g needles. […] The dimensions of the developing tumors are measured alternate days using calipers and the sizes estimated in cubic millimeters. A minimum of 5 mice per group is used for the topical treatment.
Chemopreventive or chemotherapeutic effect of ISC-4 on cutaneous tumor development is measured by subcutaneous injection of 1 million UACC 903 cells in 0.2 ml of DMEM −10% FBS above both the left and right rib cages of 4- to 6-week old female athymic nude mice using 24 g needles. 24 hours later, animals were treated daily with ISC-4 (12.5-50 μM), PBITC (12.5-50 μM), or vehicle control (acetone) for 3-4 weeks. The dimensions of the developing tumors are measured alternate days using calipers and the sizes estimated in cubic millimeters. A minimum of 5 mice per group was used for the topical treatment.

T-98-G = assay: MTS assay, glioblastoma cells; settings: Homo sapiens, T98G, 24 h
HT-1080 = assay: MTS assay, fibrosarcoma cells; settings: Homo sapiens, HT-1080, 24 h
Caco-2 = assay: MTS assay, colon cancer cells; settings: Homo sapiens, Caco-2, 24 h
MDA-MB-231 = assay: MTS assay, breast cancer cells; settings: Homo sapiens, MDA-MB-231, 24 h
WM115 melanoma cells = assay: MTS cell viability assay, WM115; settings: Homo sapiens, WM-115, 24 h
PC-3 = assay: MTS assay, prostate cancer cells; settings: Homo sapiens, PC-3, 24 h
1205 Lu melanoma cells = assay: MTS cell viability assay, 1205 Lu; settings: Homo sapiens, 24 h
[5] = tested on: normal human fibroblasts (FF2441); assay: IC50 in normal human fibroblasts
UACC 903 melanoma cells [6] = assay: MTS cell viability assay, UACC 903; settings: Homo sapiens, UACC-903, 24 h
[7] = tested on: pAkt and downstream pPRAS40 in UACC 903 tumors; assay: Western blot analysis of excised tumors; settings: day 13, 0.76 μmoles i.p. alternate days, versus DMSO or PBITC
[8] = tested on: Akt signaling pathway in melanoma cell line WM115; assay: Western blot, Akt signaling pathway in WM115; settings: FIG. 10B
[9] = tested on: Akt signaling pathway in melanoma cell line 1205 Lu; assay: Western blot, Akt signaling pathway in 1205 Lu; settings: FIG. 10A
UACC 903 cells [10] = assay: Cell cycle analysis (propidium iodide, FACScan); settings: 24 hours
UACC 903 tumors = assay: Proliferation/apoptosis rates in tumors (TUNEL, Ki-67)
[11] = tested on: GFP tagged UACC 903 human melanoma cells; assay: Topical application on reconstructed human skin with melanoma cells; settings: 12.5 and 25 μM topical; compared to DMSO treated or untreated skins
UACC 903 melanoma cells [12] = assay: Tumor development in nude mice, subcutaneous UACC 903, i.p. treatment; settings: 0.76 μmoles (3 ppm selenium) i.p. thrice per week; day 24; doses 3× lower than isothiocyanates
Akt signaling pathway = assay: Western blot of Akt signaling pathway in cultured melanoma cells (FIG. 9); settings: 24 hours

## [Se]=C=NCCCCc1ccccc1 [ISC-4, Phenylbutyl Isoselenocyanate]
UACC 903 cells [1]; 5, 10, 15 μM
  proliferative potential with increasing concentrations: decreased proliferative potential
UACC 903 cells [1]; 5-15 μM
  fold more effective than PBITC or PHITC at inhibiting cellular proliferation: ~2 fold
UACC 903 cells [2]; 5, 10, 15 μM
  cellular apoptosis with increasing concentrations (caspase-3/7 activity, words): increase cellular apoptosis
UACC 903 cells [2]; caspase-3/7 activity, 5-15 μM
  fold more effective than PBITC at inducing apoptosis: ~2 fold
[3]; 0.76 μmoles i.p. 3 times per week for 3 weeks, compared to vehicle DMSO
  blood SGOT, SGPT, alkaline phosphatase, glucose and creatinine: did not alter parameters
[3]; hematoxylin and eosin stained, including the liver
  histological examination of vital organ sections: did not significantly change cell morphology or organ structure
[3]; treated versus control animals
  basal urea nitrogen (BUN), creatinine and glucose levels: not significantly different
UACC 903 cells [4]; 0.063-0.19 μmoles equivalent to 0.25-0.75 ppm
  systemic toxicity by body weight: no systemic toxicity
UACC 903 cells [4]; 0.063-0.19 μmoles equivalent to 0.25-0.75 ppm, versus vehicle or PBITC
  tumor size: decreased tumor size
UACC 903 cells [4]; 12.5-50 μM
  systemic toxicity by body weight: no systemic toxicity
UACC 903 cells [4]; 12.5-50 μM, compared to PBITC or vehicle control
  reduction of melanoma tumor development: ~50%
T-98-G
  IC50: 27 ± 1 µM
HT-1080
  IC50: 11 ± 1 µM
Caco-2
  IC50: 12 ± 3 µM
MDA-MB-231
  IC50: 21 µM
WM115 melanoma cells
  IC50: 7 µM
PC-3
  IC50: 19 ± 1 µM
1205 Lu melanoma cells
  IC50: 11 µM
[5]; 24 hours
  fold greater sensitivity of melanoma cells (UACC 903) than normal fibroblasts (FF2441): 3 fold
[5]; Homo sapiens, FF2441, 24 h, read-out: IC50 (drug concentration required to kill fibroblasts)
  IC50: 37.5 µM
UACC 903 melanoma cells [6]
  IC50: 12 ± 3 µM
[7]; p<0.001
  expression of downstream PRAS40 (phosphorylated) in tumor lysates: significantly decreased expression
[7]; p<0.05
  expression of phosphorylated (active) Akt in tumor lysates: significantly decreased expression
[8]
  apoptosis indicated by cleaved PARP protein levels: causes significant apoptosis
[9]
  apoptosis indicated by cleaved PARP protein levels: causes significant apoptosis
UACC 903 cells [10]; 5 μM
  G0/G1 cell population: 59.4
  G2/M cell population: 16.3
  S cell population: 24.3
  subG0/G1 cell population: 2.9
UACC 903 cells [10]; 10 μM
  G0/G1 cell population: 41.6
  G2/M cell population: 29.4
  S cell population: 29.0
  subG0/G1 cell population: 12.3
UACC 903 cells [10]; 15 μM
  G0/G1 cell population: 35.5
  G2/M cell population: 28.0
  S cell population: 36.5
  subG0/G1 cell population: 22.8
UACC 903 tumors; compared to PBITC, size and time matched tumors
  proliferating tumor cells (Ki-67, words): slightly fewer proliferating tumor cells
UACC 903 tumors; tumors harvested at day 11 and 13, 3 ppm selenium i.p.
  TUNEL positive (apoptotic) cells in tumors, fold versus DMSO or PBITC: ~3 fold
[11]
  decrease in tumor area occupied by melanoma cells: ~80%
UACC 903 melanoma cells [12]
  melanoma tumor volume: reduce tumor volume
Akt signaling pathway
  concentration completely inhibiting the Akt3 pathway (Western blot): 10 µM
  level of apoptosis (cleaved PARP) versus PBITC: higher level of apoptosis
